Laboratory results reported in PubChem BioAssay (NCI).
Where “and” joins values, the source holds several entries; their conditions need not be identical. Identical values can stand only once.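 Five concentrations, 48 hours, 96-well plates. GI50 = concentration required for 50% inhibition of growth. The concentration for full growth arrest is given as TGI.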 Where a SMILES comes first, the peptide text is derived from it. The star is where a group is joined. Palmitoyl = CCCCCCCCCCCCCCCC(=O)*

Assays:
Experiment in all cases: NCI tumour cell line growth inhibition, 48 h
LOX IMVI melanoma = tested on: LOX IMVI melanoma
SK-OV-3 ovarian = tested on: SK-OV-3 ovarian
BT-549 breast = tested on: BT-549 breast
PC-3 prostate = tested on: PC-3 prostate
NCI-H460 lung = tested on: NCI-H460 lung
HS 578T breast = tested on: HS 578T breast
SN12C renal = tested on: SN12C renal
SNB-75 CNS = tested on: SNB-75 CNS
MOLT-4 leukemia = tested on: MOLT-4 leukemia
OVCAR-5 ovarian = tested on: OVCAR-5 ovarian

Row | Compound | TGI (LOX IMVI melanoma) | TGI (SK-OV-3 ovarian) | TGI (BT-549 breast) [µM] | TGI (PC-3 prostate) [µM] | TGI (NCI-H460 lung) | TGI (HS 578T breast) [µM] | TGI (SN12C renal) | GI50 (SNB-75 CNS) | TGI (SNB-75 CNS) | GI50 (MOLT-4 leukemia) | TGI (MOLT-4 leukemia) | GI50 (SK-OV-3 ovarian) | GI50 (BT-549 breast) [µM] | GI50 (OVCAR-5 ovarian) | TGI (OVCAR-5 ovarian) | GI50 (NCI-H460 lung) | GI50 (HS 578T breast) [µM] | GI50 (LOX IMVI melanoma) | GI50 (SN12C renal) [µM]
1 | c1ccc(C/C(=N\Nc2nc3ccccc3o2)c2ccccn2)cc1 | 2.27 µM | 0.0726 µM | 5.73 | 5.68 | 2.27 µM | 29 | 3.67 µM |  |  |  |  |  |  |  |  |  |  |  | 
2 | CCCCCCCCCCCCCCCC(=O)NC(CCCCN)C(=O)NCC(=O)NC(Cc1ccccc1)C(=O)N1CCCC1C(=O)NC(CO)C(=O)NC(Cc1ccc(O)cc1)C(=O)NC(CCCCN)C(=O)NC(CC(C)C)C(=O)NC(CCCN=C(N)N)C(=O)N1CCCC1C(=O)NCC(N)=O (stereo not given) (Palmitoyl-KGFPSYKLRPG-NH2; configuration not given here) |  | 44.7 µM | 50.4 |  | 37.2 µM | > 100 |  | 22.7 µM | 49.6 µM | 16.5 µM | 32.7 µM | 23 µM | 24.1 | 20.7 µM | 48.1 µM | 19.2 µM | 31.2 |  | 
3 | COC(=O)c1ccc(OCc2ccc3nc(-c4ccccc4)c(Cl)nc3c2)cc1 | > 100 µM |  | > 100 | > 100 | > 100 µM | 99.4 | > 100 µM |  | 55.4 µM |  | > 100 µM |  |  |  | > 100 µM |  |  |  | 
4 | Cc1cccc(N2CCN(S(=O)(=O)c3ccc(Cl)cc3)C2=N)c1C |  | > 100 µM | > 100 |  |  |  | > 100 µM |  | > 100 µM |  | > 100 µM |  |  |  | > 100 µM |  |  |  | 
5 | C=C1C(=O)C[C@@]23CCC[C@@]12CC(O)C3 (stereo not given in full) | 31.3 µM | 67.5 µM |  |  | 54.1 µM |  | 38.1 µM |  | 48.7 µM |  | > 80.7 µM |  |  |  | > 54.2 µM |  |  |  | 
6 | COc1ccc(CC2C(=O)NC(C)C(=O)N(C)C3Cc4ccc(cc4)Oc4cc(ccc4O)CC(C(=O)NC(C)C(=O)NC(C)C(=O)N2C)N(C)C3=O)cc1 (stereo not given) |  |  |  | 0.000246 | 0.0284 µM and 0.106 µM and 0.0325 µM |  | 0.281 µM and 0.536 µM | < 0.0001 µM | 0.0214 µM | < 0.0001 µM |  |  |  |  | 0.0305 µM and 0.0607 µM | 0.000156 µM |  | < 0.0001 µM | 0.208
7 | COC(=O)C1(Cc2ccccc2)Cc2ccccc2C1=O (stereo not given) | > 100 µM | > 100 µM |  | > 100 | > 100 µM | > 100 | > 100 µM |  | > 100 µM |  | 90.9 µM |  |  |  | > 100 µM |  |  |  | 
8 | COCCCN1C(=O)C2c3[nH]c4ccccc4c3C3CCC(C(C)(C)C)CC3C2C1=O (stereo not given) |  | > 100 µM | > 100 | 50.8 | 36.2 µM | 87.6 | 50 µM |  | > 100 µM |  | 70 µM |  |  |  |  |  |  |  | 
9 | NC(CO)c1ccccc1 (stereo not given) | > 100 µM | > 100 µM |  |  | > 100 µM |  |  |  | > 100 µM |  | > 100 µM |  |  |  | > 100 µM |  |  |  | 
10 | COC1(OC)/C(=C(\N)C=O)NC(C)(C)N1O | > 100 µM |  | > 100 | > 100 | > 100 µM |  | > 100 µM |  | > 100 µM |  | > 100 µM |  |  |  | > 100 µM |  |  |  | 
11 | CC1=CC(c2ccccc2)n2c(nc3cc4ccccc4cc32)N1 (stereo not given) | > 100 µM | > 100 µM | > 100 | > 100 | > 100 µM | > 100 |  |  | > 100 µM |  | > 100 µM |  |  |  | > 100 µM |  |  |  | 
12 | COc1cc(C2S/C(=C/c3ccccc3)C(=O)N2c2ccc(Cl)cc2)cc(OC)c1OC (stereo not given) | 52.4 µM | > 100 µM | > 100 | > 84.4 |  | > 100 | > 100 µM |  | > 79.9 µM |  | > 81.5 µM |  |  |  | > 100 µM |  |  |  | 
13 | O=C1O/C(=C\c2ccc(O)cc2)C(c2ccc(O)c(Cl)c2)=C1Br | 61.2 µM | 37.2 µM | 23.8 | 23.7 | 38.7 µM | 59.1 | 46.4 µM |  |  |  | 49 µM |  |  |  | 35.4 µM |  |  |  | 
14 | COc1ccccc1OC/C(N=Cc1ccncc1)=N/NC(=O)c1ccncc1 | > 100 µM | > 100 µM | > 100 | > 100 | > 100 µM | > 100 | > 100 µM |  |  |  | > 100 µM |  |  |  | > 100 µM |  |  |  | 
15 | COc1cccc(N2N=C3c4ccccc4-n4c(nc5ccccc54)C3C2N)c1 (stereo not given) | > 100 µM |  | > 100 | > 100 | > 100 µM | > 100 | > 100 µM |  | > 100 µM |  |  |  |  |  | > 100 µM |  |  |  | 
16 | CC(=O)c1c(O)c(C)c(O)c2c1OC1=CC(=O)C(C(C)=O)C(=O)C12C (stereo not given) | 33.3 µM and 37.9 µM | 56.1 µM and 80.6 µM |  |  | 20.4 µM and 43.7 µM |  | 8.95 µM and 50.1 µM | 5.97 µM and 22.5 µM | 21.2 µM and 49 µM | 3.37 µM and 20.1 µM | 13.5 µM and 59.4 µM | 9.68 µM and 26.5 µM |  | 17.1 µM and 38.1 µM | 50.4 µM and 84.6 µM | 5.29 µM and 14.5 µM |  | 5.53 µM and 12.6 µM | 
17 | CCN(CC)c1ccc(C(=C2C=CC(=[N+](CC)CC)C=C2)c2ccccc2)cc1 | 0.105 µM | 0.0854 µM |  |  |  |  | 0.0878 µM |  | 1.25 µM |  | 0.0383 µM |  |  |  | 0.342 µM |  |  |  | 
18 | CCOc1ccc(NC(=S)/N=C/C(C(=O)Nc2ccccc2C)=C(\C)O)cc1 | > 100 µM | > 100 µM | > 100 | > 100 | > 100 µM | > 100 | > 100 µM |  |  |  | > 100 µM |  |  |  | > 100 µM |  |  |  | 
19 | C[C@@H](C[C@@H](O)[C@H](O)C(C)(C)O)[C@H]1CC=C2[C@]3(C)[C@H](O)C[C@H]4C(C)(C)[C@H](O)CC[C@]4(C)[C@H]3CC[C@@]21C | 30 µM |  | 31.1 | 28 | 30.2 µM | 50.4 | 31 µM |  | 39.1 µM |  | 29.6 µM |  |  |  | 33.4 µM |  |  |  | 
20 | CN(C)CCNC(=O)c1cccc2c(NC(CS)C(=O)O)c3ccccc3nc12 (stereo not given) | 21.1 µM | 80.7 µM | 45.6 | 28.2 | 87.6 µM |  | 24 µM |  | 38.5 µM |  | 44.3 µM |  |  |  | 60.4 µM |  |  |  | 
21 | C/C(=N\O)c1ccc(Nc2c3ccccc3nc3occc23)cc1 | > 50 µM | 5.92 µM | > 12.4 | > 50 | 5.77 µM |  | > 50 µM |  | 3.78 µM |  | > 21.3 µM |  |  |  | > 50 µM |  |  |  | 
22 | C=C1C(=O)O[C@H]2C(=O)[C@H](C)CCC[C@@](C)(O)/C=C\C[C@@]3(C)O[C@@H]3C[C@@H]12 | 32.2 µM | > 100 µM |  | 38.6 | 76.1 µM | 90.2 | 31.3 µM |  |  |  |  |  |  |  | 3.64 µM |  |  |  | 
